For this data set the following is noted: for ϕ (quantum yield): pH 7.4.
Setting [1] is: spirolactone dyes, table title says PBS, text (b560-b564) says maximal ε when ring-opened in EtOH/0.1% TFA.

Where two headings read alike, the source gives them in different places.

Consider `Cc1ccccc1C1=c2cc3c(cc2[Si](c2ccccc2)(c2ccccc2)c2cc4c(cc21)CCCN4C)=[N+](C)CCC3` [Compound 018, 1,11-Dimethyl-13,13-diphenyl-6-(o-tolyl)-2,3,4,8,9,10,11,13-octahydrosilino[3,2-g:5,6-g′]diquinolin-1-ium], for which, under “PBS”, the “Brightness (ϕ × ε)” value is 41,524, the “Em (nm)” value stood at 710 nm, the “Ex (nm)” value was determined as 690 nm and the “ε (M^−1 cm^−1)” value is 148,300 M^−1 cm^−1. For the same compound, the “ϕ (quantum yield)” value (PBS) is listed as 0.28.

On to `CN(C)c1ccc2c(c1)[Si@](C)(CCCI)c1cc(N(C)C)ccc1[C@@]21OC(=O)c2ccccc21` [Compound 048, (5r,10r)-3,7-Bis(dimethylamino)-5-(3-iodopropyl)-5-methyl-3′H,5H-spiro[dibenzo[b,e]siline-10,1′-isobenzofuran]-3′-one], for which, for the setting “PBS”, the “Em (nm)” value amounted to 665 nm, the “Ex (nm)” value worked out at 645 nm and the “ϕ (quantum yield)” value is reported as 0.45. For the same compound, the “ε (M^−1 cm^−1)” value under setting [1] is on record as 144,000 M^−1 cm^−1.

Regarding `C=C[Si]1(C=C)C2=CC(=[N+]3CCC3)C=CC2=C(c2ccccc2C)c2ccc(N3CCC3)cc21` [Compound 026, 1-(7-(Azetidin-1-yl)-10-(o-tolyl)-5,5-divinyldibenzo[b,e]silin-3(5H)-ylidene)azetidin-1-ium], under “PBS”, the “Brightness (ϕ × ε)” value is 48,268, the “Em (nm)” value turned out to be 673 nm, the “Ex (nm)” value worked out at 658 nm and the “ε (M^−1 cm^−1)” value is 109,700 M^−1 cm^−1. Also, the “ϕ (quantum yield)” value (PBS) is listed as 0.44.

Take `O=C1OC2(c3ccccc31)c1ccc(N3CCC3)cc1[Si](c1ccccc1)(c1ccccc1)c1cc(N3CCC3)ccc12` [Compound 033, 3,7-Di(azetidin-1-yl)-5,5-diphenyl-3′H,5H-spiro[dibenzo[b,e]siline-10,1′-isobenzofuran]-3′-one]: the “extinction coefficient (maximum) in EtOH/0.1% TFA” value (EtOH/0.1% TFA) is listed as 80,000 M−1 cm−1. In addition, for the setting “SDS”, the “Em (nm)” value turned out to be 681 nm and the “Ex (nm)” value amounted to 664 nm. Also, the “extinction coefficient in anhydrous EtOH/0.1% TFA” value (anhydrous EtOH/0.1% TFA) is ~124 000 M−1 cm-1. Under setting [1], the “ε (M^−1 cm^−1)” value was 80,000 M^−1 cm^−1.

In the case of `CN(C)c1ccc2c(c1)[Si@](C)(CCCI)c1cc(N(C)C)ccc1[C@]21OC(=O)c2ccccc21` [Compound 047, (5s,10s)-3,7-Bis(dimethylamino)-5-(3-iodopropyl)-5-methyl-3′H,5H-spiro[dibenzo[b,e]siline-10,1′-isobenzofuran]-3′-one], under “PBS”, the “Em (nm)” value is 665 nm, the “Ex (nm)” value turned out to be 645 nm and the “ϕ (quantum yield)” value is 0.43. For the same compound, under setting [1], the “ε (M^−1 cm^−1)” value is 115,000 M^−1 cm^−1.

With `CCOC(=O)CSCCC[Si@]1(C)c2cc(N(C)C)ccc2[C@]2(OC(=O)c3ccccc32)c2ccc(N(C)C)cc21` [Compound 042, Ethyl 2-((3-((5s,10s)-3,7-bis(dimethylamino)-5-methyl-3′-oxo-3′H,5H-spiro[dibenzo[b,e]siline-10,1′-isobenzofuran]-5-yl)propyl)thio)acetate], where the note is “PBS”, the “Em (nm)” value came to 665 nm, the “Ex (nm)” value was found to be 645 nm and the “ϕ (quantum yield)” value is recorded as 0.45. In addition, the “ε (M^−1 cm^−1)” value under setting [1] is reported as 145,800 M^−1 cm^−1.

Turning to `Cc1ccccc1C1=C2C=CC(=[N+]3CCC3)C=C2[Si](c2ccccc2)(c2ccccc2)c2cc(N3CCC3)ccc21` [Compound 025, 1-(7-(Azetidin-1-yl)-5,5-diphenyl-10-(o-tolyl)dibenzo[b,e]silin-3(5H)-ylidene)azetidin-1-ium], for the setting “PBS”, the “Brightness (ϕ × ε)” value is given as 63,222, the “Em (nm)” value worked out at 680 nm, the “Ex (nm)” value was 663 nm and the “ε (M^−1 cm^−1)” value is listed as 154,200 M^−1 cm^−1. In addition, the “ϕ (quantum yield)” value (PBS) is 0.41.

`Cc1ccccc1C1=C2C=CC(=[N+]3CCC3)C=C2[Si](C)(CCCCl)c2cc(N3CCC3)ccc21` (stereo not drawn) [Compound 027, 1-(7-(Azetidin-1-yl)-5-(3-chloropropyl)-5-methyl-10-(o-tolyl)dibenzo[b,e]silin-3(5H)-ylidene)azetidin-1-ium]: the quantum yield (EtOH/0.1% TFA, mix of two isomers) amounted to 0.61. Moreover, for the setting “PBS”, the “Brightness (ϕ × ε)” value is 81,683, the “Em (nm)” value is listed as 668 nm, the “Ex (nm)” value turned out to be 651 nm and the “ε (M^−1 cm^−1)” value is recorded as 166,700 M^−1 cm^−1. Moreover, the “ϕ (quantum yield)” value (PBS) stood at 0.49. The extinction coefficient (measured in PBS, mix of two isomers) is recorded as ~4,000. Moreover, under “mix of two isomers”, the emission amounted to 670 nm and the excitation wavelength was 653 nm.

With `CN(C)c1ccc2c(c1)[Si@](C)(CCCCl)c1cc(N(C)C)ccc1[C@]21OC(=O)c2ccccc21` [Compound 037, (5s,10s)-5-(3-Chloropropyl)-3,7-bis(dimethylamino)-5-methyl-3′H,5H-spiro[dibenzo[b,e]siline-10,1′-isobenzofuran]-3′-one], the “extinction coefficient (maximum) in EtOH/0.1% TFA” value (EtOH/0.1% TFA) is listed as ~200,000 M−1 cm−1. In addition, under “PBS”, the “Em (nm)” value is reported as 665 nm, the “Ex (nm)” value is reported as 650 nm and the “ϕ (quantum yield)” value is on record as 0.40. Besides, the “ε (M^−1 cm^−1)” value under setting [1] is 200,000 M^−1 cm^−1. In addition, the “Brightness (ϕ × ε)” value (spirolactone dyes, ϕ in PBS × ε in EtOH/0.1% TFA) is reported as 80,000. Further, the overall brightness (ϕ in PBS × ε in EtOH/0.1% TFA) was ~80,000 M−1 cm−1.

For the compound `Cc1ccccc1C1=C2C=CC(=[N+](C)C)C=C2[Si](C)([C@H]2CC3C=CC2C3)c2cc(N(C)C)ccc21` (stereo partly drawn) [Compound 013, N-(5-((2S)-Bicyclo[2.2.1]hept-5-en-2-yl)-7-(dimethylamino)-5-methyl-10-(o-tolyl)dibenzo[b,e]silin-3(5H)-ylidene)-N-methylmethanaminium], where the note is “PBS”, the “Brightness (ϕ × ε)” value is 60,800, the “Em (nm)” value was 666 nm, the “Ex (nm)” value worked out at 649 nm and the “ε (M^−1 cm^−1)” value is given as 160,000 M^−1 cm^−1. Moreover, the “ϕ (quantum yield)” value (PBS) worked out at 0.38.

Regarding `Cc1ccccc1C1=C2C=CC(=[N+](C)C)C=C2[Si]2(CCCCC2)c2cc(N(C)C)ccc21` [Compound 014, N-(7-(Dimethylamino)-10-(o-tolyl)-3H-spiro[dibenzo[b,e]siline-5,1′-silinan]-3-ylidene)-N-methylmethanaminium], for the setting “PBS”, the “Brightness (ϕ × ε)” value is listed as 56,610, the “Em (nm)” value is given as 666 nm, the “Ex (nm)” value came out at 650 nm and the “ε (M^−1 cm^−1)” value is given as 170,000 M^−1 cm^−1. Under “PBS”, the “ϕ (quantum yield)” value stood at 0.33.

For the compound `CN(C)c1ccc2c(c1)[Si@](C)(CCCN=[N+]=[N-])c1cc(N(C)C)ccc1[C@@]21OC(=O)c2ccccc21` [Compound 054, (5r,10r)-5-(3-Azidopropyl)-3,7-bis(dimethylamino)-5-methyl-3′H,5H-spiro[dibenzo[b,e]siline-10,1′-isobenzofuran]-3′-one], for the setting “PBS”, the “Em (nm)” value was found to be 665 nm, the “Ex (nm)” value came to 645 nm and the “ϕ (quantum yield)” value worked out at 0.44. Under setting [1], the “ε (M^−1 cm^−1)” value is given as 218,400 M^−1 cm^−1.

`CC[Si]1(CC)C2=CC(=[N+](C)C)C=CC2=C(c2ccccc2C)c2ccc(N(C)C)cc21` [Compound 002, N-(7-(Dimethylamino)-5,5-diethyl-10-(o-tolyl)dibenzo[b,e]silin-3(5H)-ylidene)-N-methylmethanaminium]: under “PBS”, the “Brightness (ϕ × ε)” value was 58,540, the “Em (nm)” value is listed as 664 nm, the “Ex (nm)” value came to 648 nm and the “ε (M^−1 cm^−1)” value is 164,900 M^−1 cm^−1. Further, the “ϕ (quantum yield)” value (PBS) is 0.36. Moreover, the “brighter than dimethylsilyl counterpart” value (vs 001 (for 002, 009) or vs 016 (for 017), PBS) is given as 30%.

`CCOC(=O)CSCCC[Si@]1(C)c2cc(N(C)C)ccc2[C@@]2(OC(=O)c3ccccc32)c2ccc(N(C)C)cc21` [Compound 043, Ethyl 2-((3-((5r,10r)-3,7-bis(dimethylamino)-5-methyl-3′-oxo-3′H,5H-spiro[dibenzo[b,e]siline-10,1′-isobenzofuran]-5-yl)propyl)thio)acetate]: where the note is “PBS”, the “Em (nm)” value amounted to 665 nm, the “Ex (nm)” value is 646 nm and the “ϕ (quantum yield)” value is reported as 0.45. For the same compound, the “ε (M^−1 cm^−1)” value under setting [1] is reported as 150,700 M^−1 cm^−1.

For the compound `C=C[Si]1(C=C)C2=CC(=[N+](C)C)C=CC2=C(c2ccccc2C)c2ccc(N(C)C)cc21` [Compound 006, N-(7-(Dimethylamino)-10-(o-tolyl)-5,5-divinyldibenzo[b,e]silin-3(5H)-ylidene)-N-methylmethanaminium], under “PBS”, the “Brightness (ϕ × ε)” value was 56,671, the “Em (nm)” value was found to be 672 nm, the “Ex (nm)” value amounted to 657 nm and the “ε (M^−1 cm^−1)” value is 158,300 M^−1 cm^−1. The “ϕ (quantum yield)” value (PBS) is 0.36.

On to `COc1cccc(OC)c1C1=C2C=CC(=[N+](C)C)C=C2[Si](C)(CCCCl)c2cc(N(C)C)ccc21` (stereo not drawn) [Compound 030, N-(5-(3-Chloropropyl)-10-(2,6-dimethoxyphenyl)-7-(dimethylamino)-5-methyldibenzo[b,e]silin-3(5H)-ylidene)-N-methylmethanaminium], for which, under “PBS”, the “Brightness (ϕ × ε)” value is 76,000, the “Em (nm)” value is recorded as 673 nm, the “Ex (nm)” value was determined as 655 nm and the “ε (M^−1 cm^−1)” value was 200,000 M^−1 cm^−1. In addition, the “ϕ (quantum yield)” value (PBS) is 0.38.

With `C=C[Si]1(C)C2=CC(=[N+](C)C)C=CC2=C(c2ccccc2C)c2ccc(N(C)C)cc21` (stereo not drawn) [Compound 003, N-(7-(Dimethylamino)-5-methyl-10-(o-tolyl)-5-vinyldibenzo[b,e]silin-3(5H)-ylidene)-N-methylmethanaminium], under “PBS”, the “Brightness (ϕ × ε)” value was 48,924, the “Em (nm)” value worked out at 668 nm, the “Ex (nm)” value stood at 651 nm and the “ε (M^−1 cm^−1)” value is given as 141,400 M^−1 cm^−1. Also, the “ϕ (quantum yield)” value (PBS) turned out to be 0.35.

The values are drawn from US20250003877A1, “Silyl Bridged Dyes” (priority 2021, published 2025).
